According to patent US4318858A, “Thioethylamide derivatives” (Shionogi & Co., Ltd., priority 1979, dated 1982):
Like-named read-outs stand apart in the source and are kept apart here.

Columns and labels:
histamine H2 receptor = biological target: T1, histamine H2 receptor (Cavia porcellus, UniProt P47747); experiment: inhibition of the palpitation number of guinea pig's enucleated atrium (histamine antagonism); assay type: cell-based; conditions: compounds (I) as the oxalates
T1 construct: guinea pig's enucleated atrium; from tissue; host or cells: guinea pig isolated ("enucleated") atrium
Source text: The pA2 value is defined as a negative logarithm of the concentratio
of the compound (I) required to shift the doseresponse of histamine to th
high concentration side by 2fold. [Ariens, E.J., Molecular Pharmacology,
(1964), Academic Press, New York and London].

gastric acid secretion = gastric acid secretion inhibiting activity in Donryu male rats (pH value in the stomach); assay type: in vivo; conditions: Rattus norvegicus, oxalate
acute toxicity in mice = conditions: mouse, in vivo, oxalate

T1 sequence (P47747 whole entry): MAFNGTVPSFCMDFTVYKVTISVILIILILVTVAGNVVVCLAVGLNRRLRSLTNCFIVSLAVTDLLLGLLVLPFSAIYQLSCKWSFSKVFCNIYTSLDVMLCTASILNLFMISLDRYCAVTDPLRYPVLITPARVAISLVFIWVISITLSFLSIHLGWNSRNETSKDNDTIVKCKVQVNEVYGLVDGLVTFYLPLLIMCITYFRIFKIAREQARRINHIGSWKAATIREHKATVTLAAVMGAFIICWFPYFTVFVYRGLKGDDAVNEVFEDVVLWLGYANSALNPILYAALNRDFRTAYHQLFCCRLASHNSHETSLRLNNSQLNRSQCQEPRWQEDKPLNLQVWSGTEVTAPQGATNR

| Kb (histamine H2 receptor) | SMILES | also measured |
| --- | --- | --- |
| 550 nM | COC(=O)c1ccc(C(=O)NCCSCc2ccc(CN3CCCC3)s2)cc1 |  |
|  | CN(C)Cc1ccc(CSCCNC(=O)c2ccc(S(N)(=O)=O)cc2)o1.O=C(O)C(=O)O [N-[2-[[(5-dimethylaminomethyl-2-furyl)-methyl]thio]ethyl]-4-sulfamoylbenzamide oxalate] | ED50 (gastric acid secretion): 2.54 mg/kg; LD50 (acute toxicity in mice; iv, read-out: acute toxicity LD50 i.v.): 150 mg/kg; LD50 (acute toxicity in mice; po, read-out: acute toxicity LD50 p.o.): > 1000 mg/kg |
| 468 nM | COC(=O)c1ccc(C(=O)NCCSCc2ccc(CN(C)C)o2)cc1 [Test No. 4] |  |
| 1910 nM | CC=CC=CC(=O)NCCSCc1ccc(CN(C)C)o1 [Test No. 5] |  |
| 1860 nM | CN(C)Cc1ccc(CSCCNC=O)o1 [Test No. 6] |  |
| 912 nM | O=C(NCCSCc1ccc(CN2CCCC2)s1)c1ccc([N+](=O)[O-])cc1 [Test No. 9] |  |
| 2190 nM | Cc1cc(CSCCNC(=O)c2ccc(S(N)(=O)=O)cc2)sc1CN1CCCC1 [Test No. 10] |  |
| 501 nM | CC(C)c1cc(CN2CCCC2)sc1CSCCNC(=O)c1cccnc1 [Test No. 11] |  |
| 851 nM | Cc1cc(CSCCNC(=O)c2ccc([N+](=O)[O-])cc2)oc1CN1CCCC1 [Test No. 12] |  |

| SMILES | Kb (histamine H2 receptor) | also measured |
| --- | --- | --- |
| CN(C)Cc1ccc(CSCCNC(=O)c2ccc(S(N)(=O)=O)cc2)o1 [Test No. 7] | 151 nM |  |
